Legend:
Format in all cases: functional
Mus musculus [1] = experiment: Anxiolytic activity in ip dosed male albino CF-1 mouse assessed as inhibition of nicotine-induced death
Mus musculus [2] = experiment: Anxiolytic activity in ip dosed male albino CF-1 mouse assessed as inhibition of strychnine-induced lethality; conditions: CF-1, ip
Mus musculus [3] = experiment: Anxiolytic activity in ip dosed male albino CF-1 mouse assessed as inhibition of nicotine-induced tonic extensor convulsions
Mus musculus [4] = experiment: Potentiation of ethanol-induced anxiolytic activity in ip dosed male albino CF-1 mouse; conditions: CF-1, ip
Mus musculus [5] = experiment: Anxiolytic activity in ip dosed male albino CF-1 mouse assessed as inhibition of pentylenetetrazole-induced clonic convulsions; conditions: CF-1, ip
Mus musculus [6] = experiment: Anxiolytic activity in ip dosed male albino CF-1 mouse assessed as decrease in dish reflex
Mus musculus [7] = experiment: Anxiolytic activity in ip dosed male albino CF-1 mouse assessed as decrease in traction reflex
Mus musculus [8] = experiment: Anxiolytic activity in ip dosed male albino CF-1 mouse assessed as inhibition of electroshock-induced convulsions; conditions: CF-1, ip
Mus musculus [9] = experiment: Anxiolytic activity in ip dosed male albino CF-1 mouse assessed as inhibition of thiosemicarbazide -induced lethality; conditions: CF-1, ip
[10] = Mus musculus, CF-1, ip, read-out: ED50

SMILES | ED50 (Mus musculus [1]; [10]) [mg/kg] | ED50 (Mus musculus [2]) [mg/kg] | ED50 (Mus musculus [3]; [10]) [mg/kg] | ED50 (Mus musculus [4]) [mg/kg] | ED50 (Mus musculus [5]) [mg/kg] | ED50 (Mus musculus [6]; [10]) [mg/kg] | ED50 (Mus musculus [7]; [10]) [mg/kg] | ED50 (Mus musculus [8]) [mg/kg] | ED50 (Mus musculus [9]) [mg/kg] | ED50 (Mus musculus [1]) [mg/kg] | ED50 (Mus musculus [3]) [mg/kg] | ED50 (Mus musculus [6]) [mg/kg] | ED50 (Mus musculus [7]) [mg/kg]
CN(C)Cc1nnc(-c2ccco2)n1-c1ccc(Cl)cc1C(=O)c1ccccc1 | 16 | 45 | 16 | 25 | 23 | 28 | 71 | > 100 | 8 | – | – | – | –
Cc1nnc(CN)n1-c1ccc(Cl)cc1C(O)c1ccccc1 (configuration not stated) | 1.6 | 28 | 1.6 | 3.1 | 4 | 2.8 | 9 | 71 | 1.2 | – | – | – | –
CN(C)Cc1nccn1-c1ccc(Cl)cc1C(=O)c1ccccc1Cl | 1.2 | > 50 | 1 | 2.5 | 1.8 | 2.2 | 11 | – | 1.1 | – | – | – | –
Cc1nc(CN(C)C)n(-c2ccc(Cl)cc2C(=O)c2ccccc2Cl)c1CO | 1 | > 25 | 1 | 18 | 1.8 | 3.5 | 18 | 100 | 2 | – | – | – | –
CN(C)Cc1nn(CO)c(=O)n1-c1ccc(Cl)cc1C(=O)c1ccccc1Cl | 0.13 | 12.5 | 0.13 | 2 | 0.32 | 1 | 6.3 | > 100 | 0.23 | – | – | – | –
CNCc1nn(C)c(=O)n1-c1ccc(Cl)cc1C(=O)c1ccccc1.Cl | 0.56 | – | 0.45 | – | 5.6 | 4 | 12.5 | – | – | – | – | – | –
CN(C)CCn1nc(CN(C)C)n(-c2ccc(Cl)cc2C(=O)c2ccccc2)c1=O | 6.3 | > 100 | 6.3 | 80 | 18 | 28 | 100 | > 100 | 9 | – | – | – | –
NCC(=O)Nc1ccc(Cl)cc1C(=O)c1ccccc1 | 0.25 | 22 | 0.25 | 2.5 | – | 5.6 | 32 | 29 | 1.6 | – | – | – | –
Cc1nnc(CN2CCCC2)n1-c1ccc(Cl)cc1C(O)c1ccccc1 (stereo in doubt; 20) | – | – | – | – | – | – | – | – | – | 8 | 8 | 16 | >25
Cc1nnc(CN2CCCC2)n1-c1ccc(Cl)cc1C(O)c1ccccc1 (stereo in doubt; 21) | – | – | – | – | 14 | – | – | – | – | 32 | 32 | 5 | >200
Cc1nnc2n1-c1ccc(Cl)cc1C(c1ccccc1)=NC2 [ALPRAZOLAM] | 0.02 | 0.3 | 0.02 | 0.16 | 0.2 | 0.056 | 0.6 | 25.5 | 0.16 | – | – | – | –
CN1C(=O)CN=C(c2ccccc2)c2cc(Cl)ccc21 [DIAZEPAM] | 0.11 | 3.6 | 0.11 | 1 | 0.8 | 0.31 | 5 | 20 | 0.2 | – | – | – | –
Cc1nnc2n1-c1ccc(Cl)cc1C(c1ccccc1Cl)=NC2 [TRIAZOLAM] | 0.014 | 0.23 | 0.013 | 0.63 | 0.03 | 0.028 | 0.6 | 32 | 0.028 | – | – | – | –

Reference: ChEMBL document CHEMBL3272213, “Synthesis and pharmacology of novel anxiolytic agents derived from 2-[(dialkylamino)methyl-4H-triazol-4-yl] benzophenones and related heterocyclic benzophenones” (1976)
